Measurements: ChEMBL document CHEMBL3352258 (J Med Chem, 2014)
Converted amounts (≈) assume the structure as drawn.

What was measured:
[1] = target: T1, Glucose-dependent insulinotropic receptor (Homo sapiens, UniProt Q8TDV5); test: Agonist activity at human GPR119
T1 sequence (Q8TDV5 whole entry): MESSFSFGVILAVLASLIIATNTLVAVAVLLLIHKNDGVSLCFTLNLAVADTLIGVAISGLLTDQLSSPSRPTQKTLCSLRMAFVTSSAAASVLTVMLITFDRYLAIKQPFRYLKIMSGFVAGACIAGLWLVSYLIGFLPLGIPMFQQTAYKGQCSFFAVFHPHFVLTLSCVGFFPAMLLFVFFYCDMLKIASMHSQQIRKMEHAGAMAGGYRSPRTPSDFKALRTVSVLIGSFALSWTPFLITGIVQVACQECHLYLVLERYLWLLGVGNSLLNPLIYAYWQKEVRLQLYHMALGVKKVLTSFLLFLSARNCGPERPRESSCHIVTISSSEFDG

[2] = target: T2, Glucose-dependent insulinotropic receptor (Homo sapiens) (UniProt Q8TDV5); test: Intrinsic activity at human GPR119 relative to control
T2 sequence (whole entry): T1 sequence (Q8TDV5 whole entry)

[3] = Half life in human liver microsomes; assay type: ADME
[4] = Half life in Sprague-Dawley rat at 5 mg/kg, po; assay type: ADME, organism-based; set-up: dose 5 mg/kg, route oral; conditions: Sprague-Dawley, in vivo
[5] = Solubility of the compound at pH 6.5; assay type: physicochemical; conditions: buffer
[6] = Half life in mouse; assay type: ADME, organism-based; conditions: in vivo
[7] = Solubility of the compound in 50% PEG400/ 50% PBS solution; assay type: physicochemical

SMILES | EC50 [1] | Intrinsic activity [2] | other results
CC(C)OC(=O)N1CCC(Oc2ccn(-c3ccc(S(C)(=O)=O)cc3)c(=O)c2)CC1 | 133 nM | 0.8 | –
CCCc1cnc(N2CCC(Oc3ccn(-c4ccc(-n5ccnc5)cc4)c(=O)c3)CC2)nc1 | – | 0.8 | –
CCc1cnc(N2CCC(Oc3ccn(-c4ccc(S(C)(=O)=O)cc4)c(=O)c3)CC2)nc1 | 57 nM | 0.8 | –
CCCc1cnc(N2CCC(Oc3ccn(-c4ccc(NC(=O)C(C)(C)C)cc4)c(=O)c3)CC2)nc1 | 37 nM | 0.8 | –
CCCc1cnc(N2CCC(Oc3cc(=O)n(-c4ccc(S(C)(=O)=O)cc4)cc3-c3ccccc3)CC2)nc1 | > 10000 nM | – | –
CS(=O)(=O)c1ccc(-n2ccc(OC3CCN(C(=O)Oc4ccccc4)CC3)cc2=O)cc1 | 130 nM | 0.9 | –
CCCc1cnc(N2CCC(Oc3cc(=O)n(-c4ccc(S(C)(=O)=O)cc4)cc3Cl)CC2)nc1 | – | 0.8 | –
Cc1ccnc(N2CCC(Oc3ccn(-c4ccc(S(C)(=O)=O)cc4)c(=O)c3)CC2)n1 | 724 nM | 0.3 | –
CCCc1cnc(N2CCC(Oc3ccn(-c4ccc(-n5cncn5)cc4)c(=O)c3)CC2)nc1 | 63 nM | 0.8 | –
CC(C)OC(=O)N1CCCC(Oc2ccn(-c3ccc(S(C)(=O)=O)cc3)c(=O)c2)CC1 (stereo not given) | 1090 nM | 0.7 | –
CC(C)(C)OC(=O)N1CCC(Oc2ccn(-c3ccc(S(C)(=O)=O)cc3)c(=O)c2)CC1 | 183 nM | 0.8 | –
CC(C)OC(=O)N1[C@@H]2CC[C@@H]1CC(Oc1ccn(-c3ccc(S(C)(=O)=O)cc3)c(=O)c1)C2 (relative stereo; 13) [listing 1 of 2 here] | – | 1 | –
CCCc1cnc(N2CCC(Oc3ccn(-c4ccc(S(C)(=O)=O)cc4)c(=O)c3Cl)CC2)nc1 | > 10000 nM | – | –
CC(C)OC(=O)N1[C@@H]2CC[C@@H]1CC(Oc1ccn(-c3ccc(S(C)(=O)=O)cc3)c(=O)c1)C2 (relative stereo; 14) | – | 0.7 | –
CCCc1cnc(N2CCC(Oc3ccn(-c4ccc([S+](C)[O-])cc4)c(=O)c3)CC2)nc1 (racemic) | 41 nM | 0.9 | –
CC(C)OC(=O)N1CCC(COc2ccn(-c3ccc(S(C)(=O)=O)cc3)c(=O)c2)CC1 | 1700 nM | 0.7 | –
CC(C)OC(=O)N1CCC(COc2ccn(-c3ccc(S(C)(=O)=O)cc3)c(=O)c2)C1 (stereo not given) | > 10000 nM | – | –
CCCc1cnc(N2CCC(Oc3cc(C)n(-c4ccc(S(C)(=O)=O)cc4)c(=O)c3)CC2)nc1 | > 10000 nM | – | –
CC(C)OC(=O)N1[C@@H]2CC[C@@H]1CC(Oc1ccn(-c3ccc(S(C)(=O)=O)cc3)c(=O)c1)C2 (relative stereo; 13) [listing 2 of 2 here] | 870 nM | – | –
COc1cnc(N2CCC(Oc3ccn(-c4ccc(S(C)(=O)=O)cc4)c(=O)c3)CC2)nc1 | 117 nM | 1 | –
CC(C)OC(=O)N1CCC(Oc2ccn(-c3ccc(S(C)(=O)=O)cc3)c(=O)c2)C1 (stereo not given) | > 10000 nM | – | –
CCc1ccc(N2CCC(Oc3ccn(-c4ccc(S(C)(=O)=O)cc4)c(=O)c3)CC2)nc1 | 104 nM | 0.6 | –
CC(C)OC(=O)N1CC(Oc2ccn(-c3ccc(S(C)(=O)=O)cc3)c(=O)c2)C1 | > 10000 nM | – | –
CC(C)OC(=O)N1CC(COc2ccn(-c3ccc(S(C)(=O)=O)cc3)c(=O)c2)C1 | > 10000 nM | – | –

The next lines start with results.

EC50 [1] | Intrinsic activity [2] | SMILES | other results
12 nM | 0.8 | CCCc1cnc(N2CCC(Oc3cc(=O)n(-c4ccc(S(C)(=O)=O)cc4)cc3C#N)CC2)nc1 | –
31 nM | 0.9 | CCCc1cnc(N2CCC(Oc3cc(=O)n(-c4ccc(S(C)(=O)=O)cc4)cc3C)CC2)nc1 | –
12 nM | – | CS(=O)(=O)c1ccc(-n2cc(Cl)c(OC3CCN(c4ncc(C(F)(F)F)cn4)CC3)cc2=O)c(F)c1 | half-life [3]: > 120 min; half-life [4]: > 72 min; solubility [5]: 1 µg/mL (≈ 1.83 µM); half-life [6]: 30 min; solubility [7]: 122 µg/mL (≈ 223 µM)
18 nM | – | CS(=O)(=O)c1ccc(-n2cc(Cl)c(OC3CCN(c4ncc(Cl)cn4)CC3)cc2=O)cc1 | half-life [3]: 59 min; half-life [4]: 9 min; solubility [5]: < 1 µg/mL; half-life [6]: 11 min; solubility [7]: 7 µg/mL (≈ 14.1 µM)
9 nM | 0.8 | CCCc1cnc(N2CCC(Oc3ccn(-c4ccc(S(C)(=O)=O)c(F)c4)c(=O)c3)CC2)nc1 | –
11 nM | 0.8 | CCCc1cnc(N2CCC(Oc3ccn(-c4ccc(C#N)cc4)c(=O)c3)CC2)nc1 | –
32 nM | 0.8 | CCCc1cnc(N2CCC(Oc3ccn(-c4ccc(N5CCCC5=O)cc4)c(=O)c3)CC2)nc1 | –
13 nM | – | CS(=O)(=O)c1ccc(-n2cc(Cl)c(OC3CCN(c4ncc(C(F)(F)F)cn4)CC3)cc2=O)cc1 | half-life [3]: > 120 min; half-life [4]: > 72 min; solubility [5]: < 1 µg/mL; half-life [6]: 16 min; solubility [7]: 3 µg/mL (≈ 5.67 µM)
16 nM | 0.8 | CCCc1cnc(N2CCC(Oc3ccn(-c4ccc(S(C)(=O)=O)cc4)c(=O)c3)CC2)nc1 | –
16 nM | – | CS(=O)(=O)c1ccc(-n2cc(Cl)c(OC3CCN(c4ncc(C(F)(F)F)cn4)CC3)cc2=O)cc1F | half-life [3]: > 120 min; half-life [4]: > 48 min; solubility [5]: < 1 µg/mL; half-life [6]: 27 min; solubility [7]: 31 µg/mL (≈ 56.7 µM)
23 nM | 0.9 | CS(=O)(=O)c1ccc(-n2ccc(OC3CCN(c4ncc(C5CC5)cn4)CC3)cc2=O)cc1 | –
13 nM | – | CS(=O)(=O)c1ccc(-n2cc(Cl)c(OC3CCN(c4ncc(Cl)cn4)CC3)cc2=O)cc1F | half-life [3]: 39 min; half-life [4]: 12 min; solubility [5]: 3 µg/mL (≈ 5.84 µM); half-life [6]: 18 min; solubility [7]: 199 µg/mL (≈ 388 µM)
